The target in experiment [1] is T1, human serotonin re-uptake transporter (hSERT) (Homo sapiens, UniProt P31645).
T1 construct: host or cells: HEK-293
Kind of experiment: Inhibition of tritiated serotonin uptake into transfected HEK-293 cells. Type of experiment: cell-based. The settings on record: HEK-293 cells expressing hSERT; 20 nM [3H] serotonin, 40 min, 37° C.; mean ± s.e.m. An excerpt: HEK-293 cells stably expressing the human serotonin re-uptake transporter (hSERT) were obtained from R. Blakely, Vanderbilt University, USA. The cells were routinely grown in Dulbecco's Modified Eagle's Medium (Bioconcept) containing 10% fetal calf serum, penicillin, streptomycin, L-glutamine and the antibiotic G418 and passaged by trypsinisation. On the day of assay, cells from 80% confluent flasks were harvested by gentle washing with warm phosphate buffered saline (PBS). […] Serotonin uptake into the cells was determined by addition of radio-labelled [^3H] serotonin (GE Healthcare) at a concentration of 20 nM, and incubation for 40 minutes at 37° C. with gentle shaking. At the end of this time unincorporated label was removed by filtration though Unifilter 96 GF/B plates (Perkin Elmer) using a Tomtec Mach III M cell harvester. The incorporated serotonin retained on the plates was quantified by liquid scintillation counting using Microscint-40/Topcount (Perkin Elmer).

Experiment [2] deals with T2, Monoamine oxidase B (MAO-B) (Homo sapiens, UniProt P27338).
T2 sequence (P27338 1-520): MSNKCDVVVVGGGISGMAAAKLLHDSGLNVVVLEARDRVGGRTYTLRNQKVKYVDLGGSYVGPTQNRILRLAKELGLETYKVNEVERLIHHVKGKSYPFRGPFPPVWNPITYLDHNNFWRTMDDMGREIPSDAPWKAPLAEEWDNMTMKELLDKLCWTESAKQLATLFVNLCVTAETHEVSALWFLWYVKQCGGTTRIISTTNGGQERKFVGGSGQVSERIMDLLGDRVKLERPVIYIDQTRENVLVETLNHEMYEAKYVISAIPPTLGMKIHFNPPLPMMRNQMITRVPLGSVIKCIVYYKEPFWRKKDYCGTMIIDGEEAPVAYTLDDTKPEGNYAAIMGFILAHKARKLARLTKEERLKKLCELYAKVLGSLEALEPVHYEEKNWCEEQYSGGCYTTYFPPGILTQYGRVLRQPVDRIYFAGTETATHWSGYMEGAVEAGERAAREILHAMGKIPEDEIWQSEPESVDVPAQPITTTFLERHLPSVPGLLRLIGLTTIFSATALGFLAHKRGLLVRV
Kind of experiment: Monoamine oxidase B inhibition (benzylamine substrate, H2O2/vanillic acid/HRP readout). Type of experiment: biochemical. The note with it: benzylamine 0.5 mM; mean ± s.e.m.; read-out: IC50 [μM] for Inhibition of MAO-B. As for the experimental part:
(§1) The organic amines p-tyramine or benzylamine were used as substrates for the Monoamine oxidase A (MAO-A) and B (MAO-B) enzymes respectively. The H2O2 produced by this reaction was quantified by reaction with vanillic acid, catalysed by horse radish peroxidase (HRP).
(§2) The reactions were carried out in polystyrene microtitre plates. The MAO enzymes (final concentration 2 U/ml) were mixed with either p-tyramine (Sigma, final concentration 0.5 mM) or benzylamine (Sigma, final concentration 0.5 mM) as appropriate and the chromogenic solution (containing vanillic acid (Fluka), 4-aminoantipyrine (Fluka) and horse radish peroxidase (Sigma), final concentrations 0.25 mM, 0.125 mM and 1 U/ml respectively) in 0.2 M potassium phosphate buffer, pH 7.6. The reactions were followed in a microtitre plate absorbance reader e.g. Spectramax M5 (Molecular Devices Corporation). Absorbance readings at 495 nm were taken every 15 seconds for 40 minutes and the initial reaction velocities calculated by linear regression using SOFTmaxPro (Molecular Devices Corporation).
(§3) The effect of tricyclic diterpenes and their derivatives according to formula I on the monoamine oxidase enzymes was determined by their inclusion in the assay at a range of concentrations between 0.03 and 100 μM for 10 minutes prior to and during the incubation with substrate. To determine the effect of the compounds on the HRP catalyzed portion of the reaction, the MAO enzyme was replaced by H2O2 (Molecular Probes, final concentration 0.2 mM). The reactions containing MAO-A and MAO-B were both inhibited by tricyclic diterpenes and their derivatives according to formula I in a dose-dependent manner, whilst the control reaction, was unaffected. The measured IC50 values for inhibition of monoamine oxidase activity by carnosic acid, carnosic acid-12-methyl ether and 20-deoxo-carnosol are shown in Table 3.

In experiment [3] the test system is mouse. As to the kind of experiment: Marble burying test. The note with it: for NUMBER OF MARBLES COVERED BY SAWDUST % change from control / NUMBER OF MARBLES COVERED BY SAWDUST mean ± s.e.m.: mouse. The class given is in vivo. As for the experimental part:
The method applied here follows that described by Broekkamp et al., supra. Mice (n=15 per treatment group) were individually placed in transparent plastic cages (33×21×18 cm) with 5 cm of sawdust on the floor and 25 marbles (diameter 1 cm) grouped in the centre of the cage. A second, up-turned, cage served as a lid. The number of marbles covered by sawdust (by at least two-thirds) was counted at the end of the 30-minute test period. Tests were performed by investigators blind to the drug treatment protocol.
Prior to testing, all test cages and marbles were “impregnated” by leaving 10 naive mice in each cage for 15 minutes. […]
Data were analysed by comparing treated groups with vehicle control using unpaired Student's t-tests.

Experiment [4] deals with T3, Monoamine oxidase A (MAO-A) (Homo sapiens, UniProt P21397).
T3 sequence (P21397 1-527): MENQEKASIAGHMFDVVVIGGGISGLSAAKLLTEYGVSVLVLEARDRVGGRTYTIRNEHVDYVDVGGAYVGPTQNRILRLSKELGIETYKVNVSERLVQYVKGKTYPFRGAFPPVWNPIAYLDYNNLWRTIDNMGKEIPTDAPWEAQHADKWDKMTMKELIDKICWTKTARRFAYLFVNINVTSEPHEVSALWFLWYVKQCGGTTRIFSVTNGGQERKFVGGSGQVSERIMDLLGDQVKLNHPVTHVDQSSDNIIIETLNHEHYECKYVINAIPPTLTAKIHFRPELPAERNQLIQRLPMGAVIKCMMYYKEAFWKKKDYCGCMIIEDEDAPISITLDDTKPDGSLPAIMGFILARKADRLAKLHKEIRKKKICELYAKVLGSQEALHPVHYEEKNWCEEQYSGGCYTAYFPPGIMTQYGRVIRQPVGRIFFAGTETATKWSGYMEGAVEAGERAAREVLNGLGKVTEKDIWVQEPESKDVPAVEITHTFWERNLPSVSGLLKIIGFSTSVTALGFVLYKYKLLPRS
As to the kind of experiment: Monoamine oxidase A inhibition (p-tyramine substrate, H2O2/vanillic acid/HRP readout). The settings on record: p-tyramine 0.5 mM; mean ± s.e.m.; read-out: IC50 [μM] for Inhibition of MAO-A. The class given is biochemical. As for the experimental part: as §1, §2, §3

Experiment [5] concerns mouse. As to the kind of experiment: Light dark box test. The class given is in vivo. The note with it: mouse, 32 mg/kg p.o. −1 h. An excerpt: The method, which detects anxiolytic activity, follows that described by Crawley, 1981 Pharmacol. Biochem. Behav., 15:695-699. Anxiolytics increase the time spent in the light compartment.
Animals were placed into the light compartment of a 2-compartment box with one half light and open (25×27×27 cm) and the other half dark and closed (20×27×27 cm). The time spent in each compartment as well as the number of times the animal crosses from one side to the other is scored during a 3-minute test. 15 mice were studied per group. The test was performed blind.
Carnosic acid was evaluated at 3 doses (100, 200, 400 mg/kg BW), administered by oral gavage (p.o.) 24, 5 and 1 hour before the test, and compared with a vehicle control group (corn oil). Carnosic acid was dissolved in corn oil (“vehicle”). Clobazam (32 mg/kg p.o.), administered 1 hour before the test, was used as reference substance. Mice in this group received additional administrations of vehicle at 24 and 5 hours before the test in order to maintain experimental blinding.

Experiment [6] deals with mouse. As to the kind of experiment: Porsolt's forced swim test (FST). The class given is in vivo. As for the experimental part:
Mice were individually placed in cylinders (24.5 cm height, 19.5 cm internal diameter) containing 13.5 cm depth of water (22±0.5° C.) for a period of 6 minutes, behavioural parameters of interest being analysed during the final 4 minutes of the test, since the first 2 minutes include vigorous activity. Six cylinders were placed in a Perspex box, thus enabling six mice to be tested simultaneously.
Automatic monitoring of swim tests was enabled through the use of VideoMot2 software (TSE Technical and Scientific Equipment GmbH, Bad Homburg, Germany). All to experiments were observed via a black and white CCD camera. The rest:locomotion and stop:start thresholds, as determined by setting parameters in the software programme, determine the number of pixels which must change for a movement to be registered, enabling the software to determine whether a mouse is swimming or resting. The parameters which are automatically recorded include: rest time and locomotion time (ms), % rest and % locomotion, distance travelled (cm), speed of travel (cm/s) and number of stops.
Data were analysed by comparing treated groups with the untreated control group using Fisher's PLSD (StatView, SAS Institute Inc., Cary, N.C., USA)

The mark [7] stands for this setting: Table 6, 100 mg/kg i.p. −30 min.
Setting [8] is: Table 6, 200 mg/kg i.p. −30 min.

Usually IC50 stands for the point on the concentration scale where inhibition reaches its midpoint.

Marks after values point to notes of the source that are not given here.

T1 sequence (P31645 whole entry): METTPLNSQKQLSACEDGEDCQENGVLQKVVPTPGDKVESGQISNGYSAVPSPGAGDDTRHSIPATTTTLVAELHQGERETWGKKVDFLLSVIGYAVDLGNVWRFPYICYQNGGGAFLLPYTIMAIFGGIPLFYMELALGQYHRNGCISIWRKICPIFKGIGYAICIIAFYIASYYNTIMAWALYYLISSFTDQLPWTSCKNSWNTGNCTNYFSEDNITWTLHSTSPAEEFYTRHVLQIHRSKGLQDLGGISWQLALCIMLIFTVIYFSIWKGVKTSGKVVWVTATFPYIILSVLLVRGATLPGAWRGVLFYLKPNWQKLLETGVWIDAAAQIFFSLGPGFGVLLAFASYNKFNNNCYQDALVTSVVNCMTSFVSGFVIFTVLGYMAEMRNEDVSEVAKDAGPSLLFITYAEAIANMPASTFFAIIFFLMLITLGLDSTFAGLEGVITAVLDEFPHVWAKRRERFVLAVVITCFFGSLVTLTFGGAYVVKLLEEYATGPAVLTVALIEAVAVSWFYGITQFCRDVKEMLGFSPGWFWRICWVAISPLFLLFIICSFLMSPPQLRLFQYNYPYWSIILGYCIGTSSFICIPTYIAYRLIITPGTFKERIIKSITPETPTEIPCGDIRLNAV

Regarding 16-hydroxytotarol, the half-inhibitory concentration (IC50) in experiment [1] came out at 7.4 µM.

In experiment [1], `CC(C)c1ccc2c(c1)C(=O)C[C@H]1[C@](C)(C(=O)O)CCC[C@]21C` [7-Oxocallitrisic Acid, 7-oxocallitrisic acid] registered an IC50 of 32.9 ± 8.6 µM.

`CC(C)c1cc2c(c(O)c1O)[C@@]13CCCC(C)(C)[C@@H]1C[C@@H]2OC3` [20-Deoxo-carnosol, 20-deoxo-carnosol]: the concentration for half-maximal inhibition (IC50) in experiment [2] was found to be 27 ± 7.3 µM; in experiment [1], 4.2 ± 0.2 µM; in experiment [4], 4.3 ± 1.1 µM. Moreover, the “NUMBER OF MARBLES COVERED BY SAWDUST % change from control” value is −24% in experiment [3] (Table 6, 30 mg/kg i.p. −30 min); −56% in experiment [3] (setting [7]); −60% in experiment [3] (setting [8]). Also, the “NUMBER OF MARBLES COVERED BY SAWDUST mean ± s.e.m.” value in experiment [3] (Table 6, 30 mg/kg i.p. −30 min) is given as 16.7 ± 2.2; in experiment [3] (setting [7]), 9.7 ± 2.3; in experiment [3] (setting [8]) it was 8.8 ± 2.4. Moreover, in experiment [3] (mouse, 30, 100 and 200 mg/kg i.p.), the “marble burying behaviour (in words)” value was “dose-dependently and significantly reduced marble burying behaviour”.

As for `COc1c(C(C)C)cc2c(c1O)C1(C(=O)O)CCCC(C)(C)C1CC2` (stereo not drawn) [Carnosic acid-12-methylether, carnosic acid 12-methyl ether], the figures for the IC50 in experiment [2], in experiment [1] and in experiment [4] were 83.1 ± 6.8 µM, 22 ± 4.9 µM and 40.6 ± 0.25 µM, respectively.

In the case of `CN1C(=O)CC(=O)N(c2ccccc2)c2cc(Cl)ccc21` [Clobazam, clobazam, reference compound], in experiment [5], the “NUMBER OF CROSSINGS % change from control” value is “+56%” and the “TIME SPENT IN THE LIGHT COMPARTMENT % change from control” value is “+43%”.

On to `CNCCC(Oc1ccc(C(F)(F)F)cc1)c1ccccc1` (stereo not drawn) [Fluoxetine, fluoxetine, reference compound], for which, in experiment [3] (Table 5, 32 mg/kg i.p. −30 min), the “NUMBER OF MARBLES COVERED BY SAWDUST % change from control” value is −100% and the “NUMBER OF MARBLES COVERED BY SAWDUST mean ± s.e.m.” value amounted to 0.0 ± 0.0. Moreover, in experiment [3] (Table 6, 32 mg/kg i.p. −30 min), the “NUMBER OF MARBLES COVERED BY SAWDUST % change from control” value is reported as −100% and the “NUMBER OF MARBLES COVERED BY SAWDUST mean ± s.e.m.” value was 0.0***.

On to `CC(C)c1c(O)ccc2c1CC[C@H]1C(C)(C)CCC[C@]21C` [Totarol, totarol], for which half-maximal inhibition in experiment [1] (IC50) was put at 7.5 ± 2.6 µM.

As for `COC(=O)C1(C)CCCC2(C)c3ccc(O)c(C(C)C)c3CCC12` (stereo not drawn) [Totarol-19-carboxylic acid methyl ester, totarol-19-carboxylic acid methyl ester], the 50% inhibitory concentration (IC50) in experiment [1] turned out to be 7.2 µM.

Regarding `COc1ccc(C(CN(C)C)C2(O)CCCCC2)cc1` (stereo not drawn) [VENLAFAXINE, venlafaxine, reference compound], in experiment [3] (Table 6, 16 mg/kg i.p. −30 min), the “NUMBER OF MARBLES COVERED BY SAWDUST % change from control” value was −60% and the “NUMBER OF MARBLES COVERED BY SAWDUST mean ± s.e.m.” value was determined as 8.7 ± 2.2.

`CN(C)CCCN1c2ccccc2CCc2ccccc21` [imipramine, reference compound]: the “Duration of immobility (% change from control)” value in experiment [6] (32 mg/kg i.p., −30 min) is listed as −61%; in experiment [6] (32 mg/kg p.o., −24, −5, −1 h), −56%.
